# Measurements as given in a melting point compilation (Tetko et al.).
row,SMILES,melting point [°C]
1,O=C1NC(=S)NC(=O)C1=NNc1ccccc1,290
2,c1ccc(C2=NNCC2)cc1,45.8
3,CCNC(=O)CC#N,73 to 74
4,O=C(O)C(=Cc1cccc([N+](=O)[O-])c1)c1cccc([N+](=O)[O-])c1,150 to 160
5,CCOC(=O)CCc1ccc(O)cc1,40 to 42
6,CC(/N=N/c1cc(Cl)cc(Cl)c1O)=C(\Cl)C(=O)OCCOCCOCCCl,71.5
7,Cc1cccc(OP(=O)(Oc2cccc(C)c2)Oc2cccc(C)c2)c1,25.5
8,Oc1c(F)cc(Br)cc1Br,32
9,C[C@]12CC[C@@H](O)[C@H](O)[C@@H]1CC[C@@H]1[C@@H]2CC[C@]2(C)C(=O)CC[C@@H]12,233
10,O=Cc1ccc(C#Cc2ccccc2)s1,91
11,O=C(NC(=O)c1c(F)cccc1F)Nc1ccc(CON=C(c2ccc(Cl)cc2)C2CC2)cc1,144
12,OC1CCC(O)C1 (stereo unspecified),40
13,C1#CCOCc2ccccc2COCC#CCOCc2ccccc2COC1,130
14,CCCCC(=O)OC(=O)CCCC,-56.1
15,CCOC(=O)C(C#N)=C(N)c1cc2cc(Br)cc(OC)c2oc1=O,274 to 276
16,CCOc1ccc([C@]2(C(=O)N3CCC[C@H](C)[C@@H]3C)CC2(Cl)Cl)cc1,160
17,Nc1ccc(Nc2ccc(N)c3c2C(=O)c2ccccc2C3=O)c2c1C(=O)c1ccccc1C2=O,275
18,Cc1csc(C(=O)O)c1,124 to 125
19,Cc1n[nH]c(SCC(=O)c2ccc(Cl)cc2)n1,185 to 188
20,CC(=N[Si](C)(C)C)O[Si](C)(C)C,24
21,CC(=O)OC1C2=C(C(=O)C(OC(C)=O)C3(CC3C)C2=O)C2(C)CCC(C)=C(C)C2C1O (stereo unspecified),176 to 178
22,NC1=NCC(c2ccccc2)O1 (stereo unspecified),136
23,FC(F)(F)c1cc(Cl)ccc1I,29 to 31
24,CC1=C(C)C(=O)C(C)=C(C)C1=O,112
25,CC(=O)Cc1ccccc1,-15
26,O=c1[nH]nc(S)n1C1CCCCC1,190 to 194

row,SMILES,melting point [°C]
1,CC(C=CC=C(C)C(=O)O)=CC=CC=C(C)C=CC=C(C)C(=O)O,286
2,CC(C)(Oc1ccc2ccccc2c1)C(=O)O,123 to 124
3,Cc1csc(-c2cn(C(C)C)c(=O)n(CC(=O)NN)c2=O)n1,260 to 263
4,NS(=O)(=O)c1cnccc1Cl,150 to 155
5,CSc1nc(N)nc(C(C)C)n1,127 to 130
6,CCOCCOCCOCCO,-18.7
7,N#Cc1ccc(C[C@H](NC(=O)OCC2c3ccccc3-c3ccccc32)C(=O)O)cc1,189
8,NS(=O)(=O)c1cc(S(=O)(=O)c2cccc(O)c2)cs1,145
9,CCN(CC)C(=S)SC(=S)N(CC)CC,31
10,C=C(C)C(=O)C(=CC(=O)O)OC,83
11,O=C(N=C=S)c1ccccc1,128 to 131
12,C[Si](C)(C)C#Cc1cccc(C#C[Si](C)(C)C)c1,58
13,CCOC(=O)c1c(N)sc2c1CCCC2,116
14,CCCCCCCCCC=CC(=O)O,17.1
15,Cc1c(C(=O)O)sc2sc(C(=O)O)c(C)c12,360
16,O=[N+]([O-])c1c2c(c([N+](=O)[O-])c3c1CCCN3)NCCC2,187
17,CS(=O)(=O)c1ccc(Cl)cc1,97
18,COc1c(Cl)cc([N+](=O)[O-])cc1Cl,97 to 100
19,O=C(O)Cc1ccc(Oc2ccccc2)cc1,79 to 81
20,NC(=O)NC12CC3CC(CC(C3)C1)C2,250
21,Cc1c(C(=O)c2c[nH]n(C)c2=O)ccc(S(C)(=O)=O)c1C1=NOCC1,222
22,O=Cc1ccncc1,-4
23,Cc1oc(C(=O)NN)nc1-c1ccccc1,124 to 126
24,CCSC(SCC)C(O)C(O)C(O)CO (stereo unspecified),127
25,CNC(=O)Oc1cc(C)c(SC)c(C)c1,120
26,O=C=Nc1ccc2sccc2c1,58

row,SMILES,melting point [°C]
1,C=C(C)C1CC=C(C)CC1 (stereo unspecified),-74.3
2,COc1ccc(OCC(N)=O)cc1,114 to 116
3,C(=Nc1ccccc1Nc1ccccc1N=Cc1ccccc1)c1ccccc1,102 to 104
4,CCCCCCCCCCCCOS(=O)(=O)c1ccc(C)cc1,28.5 to 31.5
5,Cc1ccc(C(=S)N2CCCCC2)cc1,93
6,C=C1C(=O)C23C(OC(C)=O)CC4C(C)(C)CCC(OC(C)=O)C4(C=O)C2C(OC(C)=O)CC1C3OC(C)=O (stereo unspecified),212
7,CC1=NN(c2ccccc2)C(=O)/C1=N\Nc1cccc(C(F)(F)F)c1,171
8,O=C(O)c1cc2cc(OC(F)(F)F)ccc2[nH]1,204 to 207
9,O=C(O)c1ccc(N2CCOCC2)cc1,278 to 281
10,Clc1cc2c(c(Cl)c1Cl)Oc1c(cc(Cl)c(Cl)c1Cl)O2,243
11,NS(=O)(=O)c1ccc(C(=O)O)cc1,266 to 268
12,Nc1nc2ccccc2n1Cc1ccccc1,200 to 204
13,CCc1oc2ccccc2c1C(=O)c1ccc(O)cc1,124
14,O=C(O)c1cccc(-c2ccccn2)c1,207 to 209
15,COc1nccnc1NS(=O)(=O)c1ccc(N)cc1,176
16,COCCOc1ccccc1S(=O)(=O)NC(=O)Nc1nc(OC)nc(OC)n1,130
17,O=C(O)c1ccc(-c2ccccc2F)cc1,234 to 236
18,Cc1ccnc2c1ccc1cccnc12,145
19,CC(=O)c1cccnc1C(=O)OC(C)C,40
20,COC(=O)c1ccc(C)nc1,34 to 37
21,O=C1NC(=O)C(=Cc2ccc(Cl)cc2)C(=O)N1,243
22,Cc1nc(-c2ccc(Cl)cc2)sc1C(=O)CBr,120 to 121
23,CSc1nc2cc(N=Cc3ccc4c(c3)OCO4)ccc2[nH]1,213 to 215
24,O=c1c(Cl)c(Cl)cnn1Cc1c(F)cccc1Cl,137 to 138
25,COC(=O)c1ccc(C(=O)OC)nc1,163 to 164
26,COc1ccc(CCl)c(C)c1CCl,97

row,SMILES,melting point [°C]
1,COC(=O)C(C)N(C(=O)c1ccco1)c1c(C)cccc1C (stereo unspecified),102
2,COC(=O)c1cnc(S)n1C,207
3,N#CC(C#N)=Nc1ccccc1,86 to 87
4,CC(=O)Oc1cc(OC(C)=O)cc(C(=O)O)c1,159
5,CCn1cc(C(=O)O)c(=O)c2cc(F)c(N3CCNCC3)cc21,228
6,CCN(CC)CCN1C(=O)CN=C(c2ccccc2F)c2cc(Cl)ccc21,79.5
7,CC(=O)Nc1ccc(/C(=C\c2ccccc2NC(C)=O)C(=O)O)cc1,240
8,CC(=O)N(c1onc(C)c1C)S(=O)(=O)c1ccc(N)cc1,194
9,O=C1C=CC(=O)C(c2ccccc2)=C1,114
10,O=Nc1c(-c2ccc([N+](=O)[O-])cc2)nc2ncccn12,191
11,CCCOC(=O)c1ccc(OC(=O)c2ccc(C(=O)Oc3ccc(C(=O)OCCC)cc3)cc2)cc1,129 to 205
12,O=C(CCl)c1cccc(C(=O)CCl)c1,90
13,[O-][N+](=Nc1ccc(N=Nc2ccccc2)cc1)c1ccc(N=Nc2ccc(N=Nc3ccccc3)cc2)cc1,253
14,CC(=O)Nc1nc(O)c2nc[nH]c2n1,260
15,OC(c1ccccc1)(c1ccccc1)C1CCNCC1,160
16,O=C(Nc1ccc(Cl)cc1)c1cc(Br)ccc1O,240
17,Cc1c(C)c(C)c(CO)c(C)c1C,159 to 163
18,Cc1c(C(=O)CBr)cnn1-c1ccccc1,94 to 96
19,Cc1cccc2c1-c1nc3ccccc3nc1-2,134 to 136
20,NS(=O)(=O)c1ccc(S(=O)(=O)CCO)cc1,165
21,COc1ccc(C(C)=O)cc1[N+](=O)[O-],98
22,Fc1cccc(F)c1CBr,51 to 55
23,COc1ccccc1-c1ccc(C=C(C(C)=O)C(C)=O)o1,145 to 146
24,Nc1ncnc2c1ncn2[C@H]1C=C[C@@H](CO)O1,189 to 191
25,Cc1cc(Br)cc(Br)c1N,44 to 49
26,O=[N+]([O-])c1cccnc1,40

row,SMILES,melting point [°C]
1,COc1cc2c(c(O)c1OC)C(C)N(C)CC2 (stereo unspecified),112
2,C=CCN1C(=O)CSC1=S,43 to 46
3,CC(=O)c1cc(Cl)c(N)c(Cl)c1,161 to 165
4,O=[N+]([O-])c1ccc(CSc2ncnc3c2ncn3C2OC(CO)C(O)C2O)cc1 (stereo unspecified),194 to 196
5,C1CCC(N2CCNCC2)CC1,28 to 32
6,Cc1c(C(=O)Cl)cnn1-c1ccc(F)cc1,90 to 92
7,CSc1nc(N)nc(C2CC2)n1,157 to 159
8,CCCCCCCCCCCCCCCCC(C)CC (stereo unspecified),8
9,OCc1ccc(I)c(O)c1,148
10,Cc1cccc(CS(=O)(=O)Cl)c1,48 to 49
11,NC(=O)c1sc(Nc2ccc(Cl)cc2)nc1N,220 to 222
12,Clc1cccc(C(Cl)(Cl)Cl)c1,0.6
13,Cc1ccc(C)c(O)c1C,58
14,NC(=S)Cc1ccc(Cl)cc1,129 to 131
15,Cc1ccc2c(c1)C(=O)OC2=O,88 to 92
16,CCOC(=O)C(C)(C)C1(c2ccc(OC)cc2)CCC(=O)O1 (stereo unspecified),59
17,COc1cc2c(c(OC)c1OC)-c1ccc(SC)c(=O)cc1C(NC(C)=O)CC2 (stereo unspecified),193
18,CC1=CC(=O)C(C(C)C)=CC1=O,45.5
19,CCOc1cc(Cl)c(N)c(Cl)c1,46
20,COc1ccc(C2C(C#N)=C(N)Oc3c2c(C(F)(F)F)nn3-c2ccccc2)cc1 (stereo unspecified),211
21,CC(O)C(C)C(C)(C)C (stereo unspecified),27
22,Nc1ncc(Cl)cc1[N+](=O)[O-],193
